# Measured values from ChEMBL document CHEMBL5365454, “Strong Binding of C-Glycosylic1,2-Thiodisaccharides to Galectin-3─Enthalpy-Driven Affinity Enhancement by Water-Mediated Hydrogen Bonds” (J Med Chem, 2023).
# Experiments:
# [1] = biological target: Galectin-3 (Homo sapiens) (UniProt P17931); experiment: Binding affinity to recombinant human galectin-3 carbohydrate recognition domain expressed in Escherichia coli BL21 (DE3) cells assessed as change in enthalpy by Nano-ITC analysis
# [2] = biological target: Galectin-3 (Homo sapiens) (UniProt P17931); experiment: Binding affinity to recombinant human galectin-3 carbohydrate recognition domain expressed in Escherichia coli BL21 (DE3) cells assessed as change in entropy by Nano-ITC analysis
# [3] = biological target: Galectin-3 (Homo sapiens) (UniProt P17931); experiment: Binding affinity to recombinant human galectin-3 carbohydrate recognition domain expressed in Escherichia coli BL21 (DE3) cells assessed as gibbs free energy change by Nano-ITC analysis
# Sequence of Galectin-3 (Homo sapiens) (P17931 whole entry, the tested form may be a part): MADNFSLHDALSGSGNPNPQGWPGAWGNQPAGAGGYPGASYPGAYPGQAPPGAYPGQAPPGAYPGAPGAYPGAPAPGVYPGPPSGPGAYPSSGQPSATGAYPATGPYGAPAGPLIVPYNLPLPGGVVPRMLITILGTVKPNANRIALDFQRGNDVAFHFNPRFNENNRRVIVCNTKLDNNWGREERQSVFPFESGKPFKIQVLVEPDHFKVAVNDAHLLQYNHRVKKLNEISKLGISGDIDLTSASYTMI
Compound,deltaH [1],-TdeltaS [2],deltaG [3]
OC[C@H]1O[C@@H](S[C@@H]2CO[C@H](CO)[C@H](O)[C@@H]2O)[C@H](O)[C@@H](O)[C@H]1O,-6.48 kcal/mol,0.0956 kcal/mol,
NC(=O)[C@@H]1O[C@H](CO)[C@H](O)[C@H](O)[C@@H]1S[C@@H]1O[C@H](CO)[C@H](O)[C@H](O)[C@H]1O,,0.0478 kcal/mol,
OC[C@H]1O[C@@H](S[C@@H]2O[C@H](CO)[C@H](O)[C@H](O)[C@H]2O)[C@H](O)[C@@H](O)[C@H]1O,-4.73 kcal/mol,-1.21 kcal/mol,
NC(=O)[C@@H]1O[C@H](CO)[C@@H](O)[C@H](O)[C@@H]1S[C@@H]1O[C@H](CO)[C@H](O)[C@H](O)[C@H]1O,-7.74 kcal/mol,1.15 kcal/mol,

# Next, values leading:
deltaH [1],-TdeltaS [2],deltaG [3],Compound
-7.72 kcal/mol,1.24 kcal/mol,,COC(=O)[C@@H]1O[C@H](CO)[C@H](O)[C@H](O)[C@@H]1S[C@@H]1O[C@H](CO)[C@H](O)[C@H](O)[C@H]1O
-5.47 kcal/mol,-0.485 kcal/mol,-5.95 kcal/mol,"LACTOSE, ANHYDROUS"
